Read-outs that look alike come from different tables or passages of the source.
How the values were obtained:
Tyk2 kinase domain (DH1) = Tyk2 kinase domain (DH1) (Homo sapiens (Human), UniProt P29597); experiment: Tyk2 Radioactive Kinase Assay; format: biochemical; conditions: for inhibition at 10 µM: read-out: Tyk2 JH1% Inhibition @ 10 μM
Procedure, shortened: (§1)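 Each kinase domain is incubated with test compound at 10 μM. Activity is then measured radiometrically and expressed as percent inhibition relative to uninhibited enzyme.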

[1] = target: human TYK2 (JH2domain-pseudokinase) (Homo sapiens (Human), UniProt P29597); experiment: TYK2 JH2 Domain Binding Assay (KINOMEscan)
Chain of human TYK2 (JH2domain-pseudokinase) (P29597 556-888): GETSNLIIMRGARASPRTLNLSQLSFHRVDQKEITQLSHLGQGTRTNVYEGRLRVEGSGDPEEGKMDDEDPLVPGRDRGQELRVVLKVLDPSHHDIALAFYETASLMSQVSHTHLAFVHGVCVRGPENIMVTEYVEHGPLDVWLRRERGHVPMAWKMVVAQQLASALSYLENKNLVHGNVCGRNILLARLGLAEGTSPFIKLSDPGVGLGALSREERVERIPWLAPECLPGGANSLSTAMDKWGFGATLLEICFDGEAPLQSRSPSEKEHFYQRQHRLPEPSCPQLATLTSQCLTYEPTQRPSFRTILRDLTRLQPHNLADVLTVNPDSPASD
Procedure, shortened: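 Competition binding of a DNA-tagged fusion of human TYK2 JH2 pseudokinase (G556–D888) with NFkB DNA-binding domain, from HEK293 extracts (<0.1 nM final), against immobilised ligand beads; 1 h shaking at room temperature, 0.9% DMSO. Bound kinase quantified by qPCR.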

JAK2 kinase domain (JH1) = JAK2 kinase domain (JH1) (Homo sapiens (Human), UniProt O60674); experiment: JAK2 Radioactive Kinase Assay; format: biochemical; conditions: for inhibition at 10 µM: read-out: JAK2 JH1% Inhibition @ 10 μM
Chain of JAK2 kinase domain (JH1) (O60674 849-1124): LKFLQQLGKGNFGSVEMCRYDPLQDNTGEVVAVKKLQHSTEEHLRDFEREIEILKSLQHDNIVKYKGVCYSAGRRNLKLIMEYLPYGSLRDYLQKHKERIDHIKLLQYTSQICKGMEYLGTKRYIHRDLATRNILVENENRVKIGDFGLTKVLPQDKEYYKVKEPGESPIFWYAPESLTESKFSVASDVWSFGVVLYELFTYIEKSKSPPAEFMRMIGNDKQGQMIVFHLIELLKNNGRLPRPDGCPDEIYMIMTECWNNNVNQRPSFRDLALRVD
Procedure, shortened: as §1

Chain of Tyk2 kinase domain (DH1) (P29597 897-1176): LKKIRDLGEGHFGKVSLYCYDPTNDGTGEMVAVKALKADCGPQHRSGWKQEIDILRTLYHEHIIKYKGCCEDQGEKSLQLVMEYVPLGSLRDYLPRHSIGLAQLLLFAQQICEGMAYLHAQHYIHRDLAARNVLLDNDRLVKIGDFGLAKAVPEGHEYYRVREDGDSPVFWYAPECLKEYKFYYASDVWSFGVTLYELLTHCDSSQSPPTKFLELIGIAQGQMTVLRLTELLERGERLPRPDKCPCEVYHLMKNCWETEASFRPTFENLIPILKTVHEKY

CNc1cc(Nc2cccn(-c3ccnn3C)c2=O)nc2c(C(=O)N[C@H]3C[C@H]3F)cnn12 [I-335]
inhibition at 10 µM (Tyk2 kinase domain (DH1); compound at 10 μM, ATP 10 μM): < 50%
Kd [1]: < 0.2 nM
inhibition at 10 µM (JAK2 kinase domain (JH1); compound at 10 μM, ATP 10 μM): < 50%

CNc1cc(Nc2cccn([C@@H]3CCCOC3)c2=O)nc2c(C(=O)N[C@H]3[C@@H]4COC[C@@H]43)cnn12 [I-650]
inhibition at 10 µM (Tyk2 kinase domain (DH1); compound at 10 μM, ATP 10 μM): < 50%
Kd [1]: 1 to 10 nM
inhibition at 10 µM (JAK2 kinase domain (JH1); compound at 10 μM, ATP 10 μM): < 50%

CNc1cc(Nc2cccnc2OC2CCC2)nc2c(C(=O)NC3CCC3)cnn12 [I-168]
inhibition at 10 µM (Tyk2 kinase domain (DH1); compound at 10 μM, ATP 10 μM): < 50%
Kd [1]: 0.2 to 1 nM
inhibition at 10 µM (JAK2 kinase domain (JH1); compound at 10 μM, ATP 10 μM): < 50%

CNc1cc(Nc2cccc([C@@H]3CCCCO3)n2)nc2c(C(=O)NCC3(CO)CC3)cnn12 [I-565]
inhibition at 10 µM (Tyk2 kinase domain (DH1); compound at 10 μM, ATP 10 μM): < 50%
Kd [1]: < 0.2 nM
inhibition at 10 µM (JAK2 kinase domain (JH1); compound at 10 μM, ATP 10 μM): < 50%

CNc1cc(Nc2cccnc2OC(C)C)nc2c(C(=O)NC3CC3)cnn12 [I-146]
inhibition at 10 µM (Tyk2 kinase domain (DH1); compound at 10 μM, ATP 10 μM): < 50%
Kd [1]: 0.2 to 1 nM
inhibition at 10 µM (JAK2 kinase domain (JH1); compound at 10 μM, ATP 10 μM): < 50%

CNc1cc(-c2cn(CCN3CCN(C)CC3)c3ncccc23)nc2c(C(=O)N[C@@H]3CC[C@H]3OC)cnn12 [I-953]
inhibition at 10 µM (Tyk2 kinase domain (DH1); 10 μM compound, 10 μM ATP): < 50%
Kd [1]: 0.2 to 1 nM
inhibition at 10 µM (JAK2 kinase domain (JH1); 10 μM compound, 10 μM ATP): < 50%

CNc1cc(Nc2cccn(-c3cccc(F)c3)c2=O)nc2c(C(=O)NC[C@H](C)CO)cnn12 [I-1034]
inhibition at 10 µM (Tyk2 kinase domain (DH1); 10 μM compound, 10 μM ATP): < 50%
Kd [1]: < 0.2 nM
inhibition at 10 µM (JAK2 kinase domain (JH1); 10 μM compound, 10 μM ATP): < 50%

CNc1cc(Nc2cccn(CCOC3CC3)c2=O)nc2c(C(=O)NC3CC3)cnn12 [I-453]
inhibition at 10 µM (Tyk2 kinase domain (DH1); compound at 10 μM, ATP 10 μM): < 50%
Kd [1]: 0.2 to 1 nM
inhibition at 10 µM (JAK2 kinase domain (JH1); compound at 10 μM, ATP 10 μM): < 50%

CNc1cc(Nc2cccnc2O[C@H]2CC[C@H](OC)CC2)nc2c(C(=O)NC3CC3)cnn12 [I-247]
inhibition at 10 µM (Tyk2 kinase domain (DH1); compound at 10 μM, ATP 10 μM): < 50%
Kd [1]: 0.2 to 1 nM
inhibition at 10 µM (JAK2 kinase domain (JH1); compound at 10 μM, ATP 10 μM): < 50%

CNc1cc(Nc2cccn(C3CCCCC3)c2=O)nc2c(C(=O)N[C@H]3CC[C@H]3O)cnn12 [I-1001]
Tyk2 JH1% Inhibition @ 10 μM (Tyk2 kinase domain (DH1); 10 μM compound, 10 μM ATP): A (percent inhibition at 10 μM lower than 50)
Kd [1]: 1 to 10 nM
JAK2 JH1% Inhibition @ 10 μM (JAK2 kinase domain (JH1); 10 μM compound, 10 μM ATP): A (percent inhibition at 10 μM lower than 50)

CNc1cc(Nc2cccn([C@H]3CCCOC3)c2=O)nc2c(C(=O)N[C@@H]3CC[C@@H](O)C3)cnn12 [I-729]
inhibition at 10 µM (Tyk2 kinase domain (DH1); compound at 10 μM, ATP 10 μM): < 50%
Kd [1]: < 0.2 nM
inhibition at 10 µM (JAK2 kinase domain (JH1); compound at 10 μM, ATP 10 μM): < 50%

CNc1cc(Nc2cccn(-c3ccccn3)c2=O)nc2c(C(=O)NCC(C)CO)cnn12 (stereo not drawn) [I-682]
inhibition at 10 µM (Tyk2 kinase domain (DH1); compound at 10 μM, ATP 10 μM): < 50%
Kd [1]: 0.2 to 1 nM
inhibition at 10 µM (JAK2 kinase domain (JH1); compound at 10 μM, ATP 10 μM): < 50%

CNc1cc(Nc2cccn([C@H]3CC[C@]4(CCCO4)CC3)c2=O)nc2c(C(=O)NC3CC3)cnn12 [I-1109]
inhibition at 10 µM (Tyk2 kinase domain (DH1); 10 μM compound, 10 μM ATP): < 50%
Kd [1]: < 0.2 nM
inhibition at 10 µM (JAK2 kinase domain (JH1); 10 μM compound, 10 μM ATP): < 50%

Cc1cc(Nc2cc(N)n3ncc(C(N)=O)c3n2)c(=O)n(-c2cnn(C)c2)n1 [I-74]
inhibition at 10 µM (Tyk2 kinase domain (DH1); compound at 10 μM, ATP 10 μM): < 50%
Kd [1]: 0.2 to 1 nM
inhibition at 10 µM (JAK2 kinase domain (JH1); compound at 10 μM, ATP 10 μM): < 50%

CNc1cc(Nc2cccn([C@H]3CCCOC3)c2=O)nc2c(C(=O)N[C@H]3CC[C@H]3O)cnn12 [I-745]
inhibition at 10 µM (Tyk2 kinase domain (DH1); compound at 10 μM, ATP 10 μM): < 50%
Kd [1]: < 0.2 nM
inhibition at 10 µM (JAK2 kinase domain (JH1); compound at 10 μM, ATP 10 μM): < 50%

CNc1cc(Nc2cccn(-c3ccc(C(=O)N4CCC4)cn3)c2=O)nc2c(C(=O)N[C@H]3C[C@H]3F)cnn12 [I-142]
inhibition at 10 µM (Tyk2 kinase domain (DH1); compound at 10 μM, ATP 10 μM): < 50%
Kd [1]: < 0.2 nM
inhibition at 10 µM (JAK2 kinase domain (JH1); compound at 10 μM, ATP 10 μM): < 50%

CN(C)C(=O)c1cnc(-n2cccc(Nc3cc(N)n4ncc(C(N)=O)c4n3)c2=O)cn1 [I-38]
inhibition at 10 µM (Tyk2 kinase domain (DH1); compound at 10 μM, ATP 10 μM): < 50%
Kd [1]: 0.2 to 1 nM
inhibition at 10 µM (JAK2 kinase domain (JH1); compound at 10 μM, ATP 10 μM): < 50%

CNc1cc(Nc2cccn([C@H]3CCC[C@@H](OC)C3)c2=O)nc2c(C(=O)NC3CC3)cnn12 [I-622]
inhibition at 10 µM (Tyk2 kinase domain (DH1); compound at 10 μM, ATP 10 μM): < 50%
Kd [1]: 0.2 to 1 nM
inhibition at 10 µM (JAK2 kinase domain (JH1); compound at 10 μM, ATP 10 μM): < 50%

CCOc1ccc(-n2cccc(Nc3cc(N)n4ncc(C(N)=O)c4n3)c2=O)nn1 [I-33]
inhibition at 10 µM (Tyk2 kinase domain (DH1); compound at 10 μM, ATP 10 μM): < 50%
Kd [1]: 0.2 to 1 nM
inhibition at 10 µM (JAK2 kinase domain (JH1); compound at 10 μM, ATP 10 μM): < 50%

CNc1cc(Nc2cccn([C@H]3CCN(C)C[C@H]3F)c2=O)nc2c(C(=O)NC3CC3)cnn12 [I-627]
inhibition at 10 µM (Tyk2 kinase domain (DH1); compound at 10 μM, ATP 10 μM): < 50%
Kd [1]: < 0.2 nM
inhibition at 10 µM (JAK2 kinase domain (JH1); compound at 10 μM, ATP 10 μM): < 50%

CNc1cc(-n2cc(N3CCCC3)c3ncccc32)nc2c(C(=O)N[C@@H]3C[C@@H]3F)cnn12 [I-553]
inhibition at 10 µM (Tyk2 kinase domain (DH1); compound at 10 μM, ATP 10 μM): < 50%
Kd [1]: 0.2 to 1 nM
inhibition at 10 µM (JAK2 kinase domain (JH1); compound at 10 μM, ATP 10 μM): < 50%
